From paper PMC7468908 (Nutrients, 2020) come the findings set out here.

Read-outs that look alike come from different tables or passages of the source.

Assay type in all cases: biochemical
For data set [1], the target named is T1, BCRP (Homo sapiens, UniProt Q9UNQ0).
T1 construct: made in house; host or cells: Sf9 insect cells (baculovirus)
T1 sequence (Q9UNQ0 1-655): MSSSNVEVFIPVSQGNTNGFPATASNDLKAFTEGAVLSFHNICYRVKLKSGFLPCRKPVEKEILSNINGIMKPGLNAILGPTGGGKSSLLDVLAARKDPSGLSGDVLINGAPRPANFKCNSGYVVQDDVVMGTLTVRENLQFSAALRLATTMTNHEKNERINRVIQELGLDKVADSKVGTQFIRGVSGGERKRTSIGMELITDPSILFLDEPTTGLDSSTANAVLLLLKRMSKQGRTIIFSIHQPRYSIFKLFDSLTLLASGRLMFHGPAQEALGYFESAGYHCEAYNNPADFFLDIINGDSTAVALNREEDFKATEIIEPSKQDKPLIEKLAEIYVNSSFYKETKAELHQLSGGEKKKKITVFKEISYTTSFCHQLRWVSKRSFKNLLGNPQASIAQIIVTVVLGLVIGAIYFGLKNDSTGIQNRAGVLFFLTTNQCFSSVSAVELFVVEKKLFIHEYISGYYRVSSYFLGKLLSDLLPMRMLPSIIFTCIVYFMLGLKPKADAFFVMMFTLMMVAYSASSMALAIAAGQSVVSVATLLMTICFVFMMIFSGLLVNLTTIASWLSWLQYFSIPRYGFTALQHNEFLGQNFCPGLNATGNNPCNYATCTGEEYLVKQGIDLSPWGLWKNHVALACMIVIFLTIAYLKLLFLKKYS
The data set can be described thus: BCRP vesicular transport of lucifer yellow in Sf9 membrane vesicles. The following applies: for concentration inducing statistically significant (p < 0.01) decrease in transport of LY by BCRP: 10 μM lucifer yellow; for IC50: vesicular uptake of 10 μM lucifer yellow. The method, then:
Experiments were performed in insect membrane vesicles, as describe previously. Human BCRP and MRP2 were expressed in Sf9 insect cells by baculoviruses. At the third day of infection, cells were collected and membrane vesicles were obtained by mechanical disruption and differential centrifugation. To get full activity for BCRP, the cholesterol levels of the vesicles were adjusted to the level of mammalian membranes. Vesicles were stored at -80°C, total protein content of preparations was measured by the Lowry method (used as a reference of the quantity). Membrane vesicles (50 μg protein/sample) were incubated at 37 °C for 10 min (without or with 4 mM of Mg-ATP) in 50 μL volume, in the presence of transporter specific fluorescent substrates (10 μM lucifer yellow (LY) for BCRP and 5 μM 5(6)-Carboxy-2′,7′-dichlorofluorescein (CDCF) for MRP2). […] ATP dependent uptake of fluorescent substrates was examined in the presence of flavonoids (up to 50–200 μM). Each compound was dissolved in DMSO and solvent controls were applied in all experiments. […] After incubation, samples were rapidly filtered and washed on filter plate (MSFBN6B10, Millipore, Burlington, MA, USA). Accumulated substrates in vesicles were solved back from the filter by 100 μL of 10% sodium dodecyl sulfate and centrifuged into another plate. A 100-μL volume of fluorescence stabilizer was added to the samples (DMSO for LY, and 0.1 M NaOH for CDCF). Fluorescence of samples was measured by a plate reader (Victor X3 Perkin-Elmer, Waltham, MA, USA) at appropriate wavelengths (filters were λex = 405 nm and λem = 535 nm for LY as well as λex = 492 nm and λem = 635 nm for CDCF).

The target of data set [2] is T2, MRP2 (Homo sapiens, UniProt Q92887).
T2 construct: made in house; host or cells: Sf9 insect cells (baculovirus)
The data set can be described thus: MRP2 vesicular transport of CDCF in Sf9 membrane vesicles. The method, then:
Experiments were performed in insect membrane vesicles, as describe previously. Human BCRP and MRP2 were expressed in Sf9 insect cells by baculoviruses. At the third day of infection, cells were collected and membrane vesicles were obtained by mechanical disruption and differential centrifugation. To get full activity for BCRP, the cholesterol levels of the vesicles were adjusted to the level of mammalian membranes. Vesicles were stored at -80°C, total protein content of preparations was measured by the Lowry method (used as a reference of the quantity). Membrane vesicles (50 μg protein/sample) were incubated at 37 °C for 10 min (without or with 4 mM of Mg-ATP) in 50 μL volume, in the presence of transporter specific fluorescent substrates (10 μM lucifer yellow (LY) for BCRP and 5 μM 5(6)-Carboxy-2′,7′-dichlorofluorescein (CDCF) for MRP2). Quality of membrane vesicles was confirmed applying known reference inhibitors (benzbromarone and Ko143). ATP dependent uptake of fluorescent substrates was examined in the presence of flavonoids (up to 50–200 μM). Each compound was dissolved in DMSO and solvent controls were applied in all experiments. […] After incubation, samples were rapidly filtered and washed on filter plate (MSFBN6B10, Millipore, Burlington, MA, USA). Accumulated substrates in vesicles were solved back from the filter by 100 μL of 10% sodium dodecyl sulfate and centrifuged into another plate. A 100-μL volume of fluorescence stabilizer was added to the samples (DMSO for LY, and 0.1 M NaOH for CDCF). Fluorescence of samples was measured by a plate reader (Victor X3 Perkin-Elmer, Waltham, MA, USA) at appropriate wavelengths (filters were λex = 405 nm and λem = 535 nm for LY as well as λex = 492 nm and λem = 635 nm for CDCF). ABC related transport was calculated by subtracting passive uptake measured without Mg-ATP (with Mg-AMP the same background was detected) from values measured in the presence of Mg-ATP.

Data set [3] concerns the target T3, CYP3A4 (Homo sapiens, UniProt P08684).
T3 construct: purchased Sigma-Aldrich
Briefly: CYP3A4-catalyzed testosterone hydroxylation (CypExpress kit, HPLC). The following applies: for concentration inducing statistically significant (p < 0.01) decrease in metabolite formation, CYP3A4: substrate 5 µM testosterone. As for the experimental part: Inhibition of CYP2C19 [47], 3A4 [48], and 2D6 [49] by Q and its conjugates was tested based on our previously reported methods, without modifications.
S-mephenytoin and 4-hydroxymephenytoin (CYP2C19 assay), testosterone and 6β-hydroxytestosterone (CYP3A4 assay), as well as dextromethorphan and dextrorphan (CYP2D6 assay) were quantified using the previously described methods, with minor modifications.
In the CYP3A4 assay, samples were driven through a guard column (Security Guard™ Catridge C18 4.0 × 3.0 mm; Phenomenex, Torrance, CA, USA) linked to an analytical column (Kinetex C18 150 × 4.6 mm; 5 µm; Phenomenex, Torrance, CA, USA), with a 1.2 mL/min flow rate, at room temperature. The mobile phase contained methanol (VWR, Budapest, Hungary), water, and acetic acid (53:46:1 v/v%). After the isocratic elution, testosterone and 6β-hydroxytestosterone were detected at 240 nm.

Where [4] appears, read: vesicular uptake of 5 μM CDCF, read-out: IC50 for MRP2.
[5] abbreviates: testosterone hydroxylation, substrate 5 µM, read-out: IC50 for CYP3A4.

T3 sequence (P08684 whole entry): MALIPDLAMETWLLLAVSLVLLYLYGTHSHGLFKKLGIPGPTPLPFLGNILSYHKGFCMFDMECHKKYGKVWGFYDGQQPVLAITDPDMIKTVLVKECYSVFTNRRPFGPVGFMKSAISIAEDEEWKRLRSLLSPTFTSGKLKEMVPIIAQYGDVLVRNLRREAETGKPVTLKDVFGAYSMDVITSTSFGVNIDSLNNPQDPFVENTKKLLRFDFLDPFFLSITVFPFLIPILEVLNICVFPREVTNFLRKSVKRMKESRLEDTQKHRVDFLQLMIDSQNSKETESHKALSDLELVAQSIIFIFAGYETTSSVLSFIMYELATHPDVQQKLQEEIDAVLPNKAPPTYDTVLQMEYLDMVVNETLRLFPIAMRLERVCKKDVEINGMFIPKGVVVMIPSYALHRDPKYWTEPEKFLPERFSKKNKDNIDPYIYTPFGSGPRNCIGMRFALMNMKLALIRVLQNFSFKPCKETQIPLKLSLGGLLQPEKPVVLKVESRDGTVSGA
T2 sequence (Q92887 whole entry): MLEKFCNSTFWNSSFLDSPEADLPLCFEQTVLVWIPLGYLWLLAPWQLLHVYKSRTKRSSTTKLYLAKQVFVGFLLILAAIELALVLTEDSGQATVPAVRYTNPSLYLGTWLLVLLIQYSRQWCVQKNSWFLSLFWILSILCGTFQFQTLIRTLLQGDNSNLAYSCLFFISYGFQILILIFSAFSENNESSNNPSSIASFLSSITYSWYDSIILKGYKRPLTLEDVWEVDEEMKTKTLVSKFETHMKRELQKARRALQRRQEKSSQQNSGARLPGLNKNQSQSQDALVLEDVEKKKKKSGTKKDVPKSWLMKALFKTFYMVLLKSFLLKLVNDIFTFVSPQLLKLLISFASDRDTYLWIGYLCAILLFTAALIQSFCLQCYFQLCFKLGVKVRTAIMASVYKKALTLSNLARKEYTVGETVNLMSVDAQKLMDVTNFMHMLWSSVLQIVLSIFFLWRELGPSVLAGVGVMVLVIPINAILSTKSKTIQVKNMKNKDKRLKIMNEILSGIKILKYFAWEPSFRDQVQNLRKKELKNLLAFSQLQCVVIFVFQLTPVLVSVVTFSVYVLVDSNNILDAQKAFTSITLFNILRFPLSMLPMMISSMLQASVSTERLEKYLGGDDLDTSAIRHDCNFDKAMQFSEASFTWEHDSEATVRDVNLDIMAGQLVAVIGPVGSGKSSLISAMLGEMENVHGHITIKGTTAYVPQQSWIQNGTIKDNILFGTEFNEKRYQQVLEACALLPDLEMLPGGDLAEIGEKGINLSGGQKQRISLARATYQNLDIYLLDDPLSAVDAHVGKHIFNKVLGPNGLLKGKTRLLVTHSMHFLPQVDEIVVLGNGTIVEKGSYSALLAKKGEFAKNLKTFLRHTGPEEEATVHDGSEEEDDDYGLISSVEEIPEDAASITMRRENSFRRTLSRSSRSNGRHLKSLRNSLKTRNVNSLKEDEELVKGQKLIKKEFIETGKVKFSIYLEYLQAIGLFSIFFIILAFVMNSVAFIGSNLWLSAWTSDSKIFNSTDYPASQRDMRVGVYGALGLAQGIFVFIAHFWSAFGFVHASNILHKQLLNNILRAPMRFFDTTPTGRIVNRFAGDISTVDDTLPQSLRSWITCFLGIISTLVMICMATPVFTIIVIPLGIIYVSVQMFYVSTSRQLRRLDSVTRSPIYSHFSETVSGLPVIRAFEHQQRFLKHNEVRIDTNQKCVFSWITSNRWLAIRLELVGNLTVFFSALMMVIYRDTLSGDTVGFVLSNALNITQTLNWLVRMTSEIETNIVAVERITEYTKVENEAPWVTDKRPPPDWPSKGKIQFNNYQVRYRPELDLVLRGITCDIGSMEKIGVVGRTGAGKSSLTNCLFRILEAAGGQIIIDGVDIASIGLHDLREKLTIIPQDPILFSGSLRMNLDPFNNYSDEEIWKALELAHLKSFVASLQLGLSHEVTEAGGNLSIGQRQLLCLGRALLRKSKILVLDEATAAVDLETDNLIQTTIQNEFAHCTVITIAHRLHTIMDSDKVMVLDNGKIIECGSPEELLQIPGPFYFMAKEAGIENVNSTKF

The term IC50 denotes the concentration that inhibits the measured activity by half. Consider `COc1cc(-c2oc3cc(O)cc(O)c3c(=O)c2OC2OC(C(=O)O)C(O)C(O)C2O)ccc1O` (centres unmarked) [I3G, isorhamnetin-3-glucuronide], for which, in data set [1], the “concentration inducing statistically significant (p < 0.01) decrease in transport of LY by BCRP” value is 20 µM. The half-maximal inhibitory concentration (IC50) in data set [1] is above 30 µM; in data set [2] (setting [4]), 14.9 µM; in data set [3] (setting [5]), above 30 µM. The “concentration inducing statistically significant (p < 0.01) decrease in metabolite formation, CYP3A4” value in data set [3] was 10 µM.

`COc1cc(-c2oc3cc(O)cc(O)c3c(=O)c2O)ccc1O` [IR, isorhamnetin]: the “concentration inducing statistically significant (p < 0.01) decrease in transport of LY by BCRP” value in data set [1] stood at 0.05 µM. This molecule also had an IC50 in data set [2] above 30 µM. Also, in data set [3], the IC50 was above 30 µM and the “concentration inducing statistically significant (p < 0.01) decrease in metabolite formation, CYP3A4” value amounted to 10 µM.

In the case of `O=C(O)C1OC(Oc2c(-c3ccc(O)c(O)c3)oc3cc(O)cc(O)c3c2=O)C(O)C(O)C1O` (centres unmarked) [Q3G, quercetin-3-glucuronide], in data set [1], the “concentration inducing statistically significant (p < 0.01) decrease in transport of LY by BCRP” value is 1.0 µM. Further, the IC50 is 13.5 µM in data set [1], 24.2 µM in data set [2] (setting [4]) and above 30 µM in data set [3] (setting [5]). Besides, the “concentration inducing statistically significant (p < 0.01) decrease in metabolite formation, CYP3A4” value in data set [3] came out at 20 µM.

Turning to `O=c1c(O)c(-c2ccc(O)c(OS(=O)(=O)O)c2)oc2cc(O)cc(O)c12` [Q3′S, quercetin-3′-sulfate], in data set [1], the “concentration inducing statistically significant (p < 0.01) decrease in transport of LY by BCRP” value is 0.2 µM. The IC50 in data set [1] is 3.2 µM; in data set [2] (setting [4]), 19.6 µM; in data set [3] (setting [5]) it was above 30 µM. The “concentration inducing statistically significant (p < 0.01) decrease in metabolite formation, CYP3A4” value in data set [3] came out at 10 µM.

With `O=c1c(O)c(-c2ccc(O)c(O)c2)oc2cc(O)cc(O)c12` [Q, quercetin], the “concentration inducing statistically significant (p < 0.01) decrease in transport of LY by BCRP” value in data set [1] is 0.05 µM. For the same molecule, the IC50 in data set [1] was 0.13 µM; in data set [2] (setting [4]), above 30 µM. Further, the “concentration inducing statistically significant (p < 0.01) decrease in metabolite formation, CYP3A4” value in data set [3] was determined as 5 µM.
